As a reminder, the IC50 is the concentration needed to halve the response being measured. Low readings indicate greater potency in that assay, high ones weaker potency in that assay.

Each structure is given as a SMILES string. The source made the active and inactive calls. The rule behind the calls is not given here.

The test system of experiment [1] is T47D. The experiment is described as follows: Cell viability of human T47D cells by trypan blue exclusion assay. It counts as functional, cell-based.
For experiment [2], the system named is T47D. The experiment is described as follows: Cell viability of human T47D cells at 10 uM by trypan blue exclusion assay. It counts as functional, cell-based.

For the molecule `CCOC(=N)CCNc1cc(OC)c(Oc2cccc(C(F)(F)F)c2)c2c(C)ccnc12`, in the experiment on T47D [1], the IC50 came out at 1.97 µM. On the same count and under the same terms, in the case of `COc1cc(NCc2cnc[nH]2)c2nccc(C)c2c1Oc1cccc(C(F)(F)F)c1` it was 1.28 µM; in that of `COc1cc(NCc2ccco2)c2nccc(C)c2c1Oc1cccc(C(F)(F)F)c1`, 0.0156 µM; in that of `COc1cc(NCCCN)c2nccc(C)c2c1Oc1cccc(C(F)(F)F)c1`, 0.119 µM. For `COc1cc(N)c2nccc(C)c2c1Oc1cccc(C(F)(F)F)c1`, the outcome in the experiment on T47D [2] was inactive. `COc1cc(NCc2cccs2)c2nccc(C)c2c1Oc1cccc(C(F)(F)F)c1` registered a half-maximal inhibitory concentration (IC50) in the experiment on T47D [1] of 3.73 µM. The same measure, in the same setting: under `COc1cc(NCCC(=N)N)c2nccc(C)c2c1Oc1cccc(C(F)(F)F)c1` stands 0.519 µM; under `COc1cc(NCCC#N)c2nccc(C)c2c1Oc1cccc(C(F)(F)F)c1`, 0.378 µM.

Values taken from ChEMBL document CHEMBL1150339, “Synthesis and anti-breast cancer activities of substituted quinolines” (Bioorg Med Chem Lett, 2008).
